Measured values reported in patent US20160166572A1, “BENEFICIAL EFFECTS OF Lp-PLA2 INHIBITORS IN TREATMENT OF DIABETIC RETINOPATHY AND AGE-RELATED MACULAR DEGENERATION” (Rowan University, priority 2014, published 2016).

Assays:
porcine retina [1] = experiment: Determination of retinal layer thickness (H&E, ImagePro) in DMHC porcine model; assay type: in vivo, pig; settings: DMHC pigs, Darapladib 10 mg/kg/d orally, 24 weeks
Experimental: Briefly, after induction of diabetes by a single injection of Streptozotocin, animals were fed a high cholesterol diet. After a month of DMHC induction and acclimation, animals were randomly segregated to untreated DMHC and Darapladib-treated DMHC groups. Darapladib-treated pigs received 10 mg/kg/d of Darapladib orally. Three of the pigs were spared from DMHC induction and served as age-matched, non-DMHC normal controls. Twenty four weeks after acclimation, animals were euthanized and their brains and eyes were immediately removed. Brains were divided anteroposteriorly into anterior, middle and posterior regions. For each of these brain regions, 2-3 tissue blocks were generated for routine tissue fixation (10% formalin) or freezing and histological processing. The anterior cortical region comprised of anterior ⅔ of frontal lobe and anterior ⅓ of temporal lobe. The middle cortical region contained mid ⅓ of temporal lobe and anterior ½ of the parietal lobe. The posterior cortex included the posterior ½ of the parietal lobe, posterior ⅓ of the temporal lobe and the occipital lobe. Eyes were dissected longitudinally to sever the retina at the optic nerve. The sections were fixed in 10% formalin and embedded as flattened disc in paraffin. The tissue samples were processed using routine histology techniques. Standard Hematoxylin & Eosin (H&E) staining (FIG. 1) was carried out in retinal sections. The remarkably uniform and laminated histological architecture of the retina lends itself well to direct measurements of the thickness of the various layers as shown in FIG. 1. Using the image analysis software, ImagePro 7.0 (Media Cybernetics, Silver Spring, Md.), the thickness of all retinal layers were measured. The thickness of each retinal layer was measured in three separate retinal sections obtained from each animal. In each section, measurements were made at two randomly selected locations in the middle part of retina. Results were averaged for each pig. The identity of specimens was blinded and two independent investigators carried out this analysis. In addition, the percentage contribution of each retinal layer to the total thickness of the retina was calculated and compared among the different treatment groups (FIG. 2). The thickness of the individual layers of the retina was measured in transverse sections stained with Hematoxylin and Eosin using the image analysis software, ImagePro 7.0.

porcine retina [2] = experiment: Cell number in retinal GCL and INL by counting DAPI-positive nuclei, DMHC pigs; assay type: in vivo, pig; settings: Darapladib 10 mg/kg/d orally, 24 weeks, FIG. 3D-E
Experimental: Briefly, after induction of diabetes by a single injection of Streptozotocin, animals were fed a high cholesterol diet. After a month of DMHC induction and acclimation, animals were randomly segregated to untreated DMHC and Darapladib-treated DMHC groups. Darapladib-treated pigs received 10 mg/kg/d of Darapladib orally. Three of the pigs were spared from DMHC induction and served as age-matched, non-DMHC normal controls. Twenty four weeks after acclimation, animals were euthanized and their brains and eyes were immediately removed. Brains were divided anteroposteriorly into anterior, middle and posterior regions. For each of these brain regions, 2-3 tissue blocks were generated for routine tissue fixation (10% formalin) or freezing and histological processing. The anterior cortical region comprised of anterior ⅔ of frontal lobe and anterior ⅓ of temporal lobe. […] Cells positive for GFAP were counted throughout the whole thickness of the retina, and then quantified using ImagePro7.0 (Media Cybernetics, Silver Spring, Md.). Briefly, a 300×300 pixel square area was randomly made in each retinal section in three contiguous locations across the retina and the positive GFAP area was determined per total area using a fixed threshold. […] Cell number was determined by counting the DAPI-positive nuclei in a fixed area. […]

CCN(CC)CCN(Cc1ccc(-c2ccc(C(F)(F)F)cc2)cc1)C(=O)Cn1c(SCc2ccc(F)cc2)nc(=O)c2c1CCC2 [Darapladib]
thickness of ganglion cell layer (GCL) (porcine retina [1]; FIG. 2B): comparable to controls | thickness of outer nuclear layer (ONL) (porcine retina [1]; FIG. 2C): comparable to controls | thickness of inner-segment (IS)/outer-segment (OS) layer (porcine retina [1]; FIG. 2D): comparable to controls | thickness of inner plexiform layer (IPL) (porcine retina [1]; FIG. 2E): lowered IPL thickness in DMHC animals to near control levels | thickness of inner nuclear layer (INL) (porcine retina [1]; FIG. 2F): comparable thickness across all treatment groups | cell number (nuclei) in GCL (porcine retina [2]): comparable to controls | cell number (nuclei) in INL (porcine retina [2]): comparable to controls
